Read-outs that look alike come from different tables or passages of the source.

The text below walks through data of paper PMC4609936, “Pharmacologically targeted NMDA receptor antagonism by NitroMemantine for cerebrovascular disease” (Scientific Reports, 2015).

Data set [1] concerns NMDAR-mediated component of the EPSC. Briefly: Evoked EPSCs in hippocampal autapses, whole-cell recording. The format is cell-based, rat.
Data set [2] in a line: Aqueous solubility. The format is physicochemical.
In data set [3] the target is recombinant GluN1/GluN2A receptors (Homo sapiens, UniProt Q05586+Q12879). Briefly: Two-electrode voltage clamp of oocytes, channel block of NMDA-induced current. The format is cell-based. The settings on record: for steady-state channel block of NMDA current: 10 μM (equimolar), Vh −70 mV; for IC50: steady-state, short-term drug addition, holding potential −70 mV, nominal absence of extracellular Mg2+, read-out: IC50 of inhibiting NMDA-induced current. On the procedure:
[…] Recordings were performed with an Oocyte Clamp OC-725b amplifier (Warner Instrument Corporation, Hamden, CT) using MacLab version 3.5 software (AD Instruments, Milford, MA) at room temperature. […] Both electrodes were filled with 3 M KCl. A solution containing 90 mM NaCl, 1 mM KCl, 10 mM HEPES, 1.5 mM BaCl2, and 10–100 μM glycine, pH 7.5 was used to continuously superfuse the oocytes. Barium, rather than calcium, was used as the divalent cation in order to minimize secondary activation of Ca^2+-activated Cl^− current. In some experiments, 1.2 mM MgCl2 was added to the bath solution. Drugs were dissolved in frog Ringer’s solution and applied by superfusion at a 2 ml/min flow rate. In some cases, to achieve relatively rapid solution exchange, we used an array of pipettes similar to the “sewer pipe” system used in patch-clamp recording. Perfusion artifacts were digitally removed from the traces.
For orientation: Two-electrode voltage clamp holds a large cell at a set potential and records current.

Data set [4] addresses NMDA-evoked currents in primary rat cortical neurons (Rattus norvegicus, UniProt P35439). Briefly: Whole-cell patch clamp of NMDA-evoked currents in primary rat cortical neurons. The format is cell-based. The settings on record: 5 μM, −75 mV and +30 mV. (Patch clamp records ionic current or voltage across a cell membrane.)
Data set [5] relates to GluN1/GluN2A NMDARs. Briefly: Oocyte voltage clamp, redox (S-nitrosylation) mediated inhibition of NMDA-evoked current. The format is cell-based. On the procedure:
(§1) Two-electrode voltage clamp recordings at −60 or −70 mV were made on oocytes in frog Ringer’s solution two to seven days after injection of NMDAR subunits. Recordings were performed with an Oocyte Clamp OC-725b amplifier (Warner Instrument Corporation, Hamden, CT) using MacLab version 3.5 software (AD Instruments, Milford, MA) at room temperature. […] Both electrodes were filled with 3 M KCl. A solution containing 90 mM NaCl, 1 mM KCl, 10 mM HEPES, 1.5 mM BaCl2, and 10–100 μM glycine, pH 7.5 was used to continuously superfuse the oocytes. Barium, rather than calcium, was used as the divalent cation in order to minimize secondary activation of Ca^2+-activated Cl^− current. In some experiments, 1.2 mM MgCl2 was added to the bath solution. Drugs were dissolved in frog Ringer’s solution and applied by superfusion at a 2 ml/min flow rate. In some cases, to achieve relatively rapid solution exchange, we used an array of pipettes similar to the “sewer pipe” system used in patch-clamp recording. Perfusion artifacts were digitally removed from the traces.

Data set [6] addresses GluN1(N616R)/GluN2A channels (Homo sapiens, UniProt Q05586+Q12879, N616R). Put plainly: Oocyte voltage clamp, redox effect on memantine binding site mutant. The settings on record: for effect of GluN1(N616R) mutation on inhibition of current via S-nitrosylation: 200 µM. The format is cell-based. On the procedure:
as §1
Mutant NMDAR subunits were prepared using the Chameleon^TM double-stranded site-directed mutagenesis kit (Stratagene) according to the manufacturer’s instructions. The entire coding region was sequenced to verify the mutation.

Data set [7] has as its system SNO-GluN1 and SNO-Drp1. Put plainly: Biotin switch assay of S-nitrosylated proteins in brain after stroke. The format is in vivo, rat. Conditions: SHR, loading dose 2-h post occlusion, sacrificed 90 min thereafter.
Experimental: Analysis of S-nitrosylation of NMDA receptors in rat brain was performed by the biotin switch assay, as previously described[48][49]. Free thiols in tissue lysates were blocked with methyl-methanethiosulfonate. Proteins were then precipitated with acetone and resuspended in HEN buffer (250 mM HEPES, pH 7.4, 1 mM EDTA, 0.1 mM neocuproine) plus 1% sodium dodecyl sulfate. Ascorbate was used to selectively reduce nitrosothiols in order to reform free thiol groups, which were subsequently biotinylated using 1 mM biotin-HPDP (Pierce, Rockford, IL). Parallel reactions were performed without ascorbate as a control to ensure specificity of the biotinylated bands. Biotinylated proteins were captured on streptavidin-agarose beads and analyzed by immunoblotting.
Data set [8] relates to LTP in hippocampal CA1. Briefly: LTP in hippocampal slices by field recordings. The settings on record: 10 μM, high-frequency burst, rat hippocampal slices. The format is cell-based.
Data set [9] deals with spontaneously hypertensive rats (SHR). Briefly: Morris water maze. The format is in vivo, rat. Conditions: neuroprotective doses: 65.8 μmol/kg loading i.p., 3.29 μmol/kg every 12 h. On the procedure: Adult male spontaneously hypertensive rats (SHR) were treated with either PBS or NitroMemantine (65.8 μmol/kg loading dose, i.p., followed by a 3.29 μmol/kg maintenance dose every 12 h). Each group was comprised of five rats (n = 5). Treatment for both groups commenced 48 h prior to the first day of testing. Both the treatment and water-maze testing were conducted in a blinded fashion. The water maze consisted of a circular pool 150 cm in diameter and 85 cm deep. The pool was filled to cover a moveable platform, black in color, by 1 cm of water. The water was made opaque via the addition of black paint and maintained at room temperature (20–23 °C) for the duration of the five days of testing. A white pool with black water allowed the video camera to successfully track the white rats with maximum contrast. On day 1, the rats were placed in the pool with no platform for 60 s of acclimation. Days 2 through 5 were used for testing. Starting on day 2 and continuing to day 5, rats were trained for 24 total trials (six trials/day) to locate and reach the submerged platform. The platform was kept in the same location for all trials in each session (day), but changed from session to session in a pre-determined order, yielding four unique locations in all. In addition, there were four possible release locations (the four cardinal compass directions at the pool’s perimeter). […]

The subject of data set [10] is developing cerebrocortex. Put plainly: Cerebrocortical apoptosis by TUNEL in neonatal rats. Conditions: P7 rat pups, loading dose, 24 h later. The format is in vivo.
The subject of data set [11] is spontaneously hypertensive rats (SHR). Put plainly: tMCAO/R focal cerebral ischemia, infarct size by TTC staining. The format is in vivo, rat. The settings on record: for histological protection (infarct size) at equimolar dose: MFD of NitroMemantine (65.8 μmol/kg loading, 3.29 μmol/kg maintenance); for histological protection (infarct, TTC staining): loading i.p. 2-h post occlusion: memantine 90.3 μmol/kg, NitroMemantine 65.8 μmol/kg, maintenance 12 h later, sacrificed at 24 h. On the procedure:
Because of their known propensity to stroke, similar to human patients with hypertension, we used spontaneous hypertensive rats (SHR, Harlan) to induce tMCAO/R with the intraluminal suture method. Male 200–300 g SHR were anesthetized with 3% isoflurane in 30% oxygen/70% nitrous oxide using an anesthetic vaporizer and flowmeter. Body temperature was maintained at 37 °C with a homeothermic temperature system. A laser Doppler monitor was used to monitor relative cerebral blood flow (rCBF) during the surgical procedure and recovery. rCBF measurements were made immediately after anesthesia, after occlusion of the MCA, just before, and immediately after withdrawal of the suture to initiate reperfusion. To initiate a stroke, a midline incision was made to expose the right common carotid, external carotid, and internal carotid arteries. The occipital artery branches of the external carotid artery were isolated and along with the terminal lingual and maxillary artery branches coagulated with an electrocautery unit. The internal carotid artery was isolated and carefully separated from the adjacent vagus nerve. The pterygopalatine artery was ligated close to its origin, two loosely tied sutures placed around the external carotid artery stump, and a microaneurysm clip applied to the external carotid artery near its bifurcation with the internal carotid artery. A small puncture opening was made in the external carotid artery, a monofilament (intraluminal suture) inserted through the opening, and the sutures tightened around the lumen containing the filament. The microaneurysm clip was removed from the external carotid artery and the monofilament gently advanced from the lumen of the external carotid artery into the internal carotid artery for a distance of ~19 to 20 mm beyond the bifurcation of the common carotid artery until the blood flow dropped (≥80% reduction by rCBF measurement). The suture around the external carotid artery stump was tightened to prevent bleeding. After 2 h, sutures were removed, the filament withdrawn and the incision sutured removed, with rCBF recovering at least 75% at reperfusion. Just prior to reperfusion, rats were administered memantine, NitroMemantine, or memantine-OH via i.p. injection in saline vehicle or an equivalent volume of vehicle alone. […] Maintenance doses (4.63 μmol/kg of memantine and 3.29 μmol/kg of NitroMemantine, equivalent to 1 mg/kg or each) were administered 12 h after the loading dose. […] In subsequent experiments, equimolar memantine, NitroMemantine YQW-036, or memantine-OH was used using the lower NitroMemantine dose described above. The rodents were sacrificed 24-h post occlusion, and the size of brain infarct was evaluated histologically by 2,3,5-triphenyl-2H-tetrazolium chloride (TTC) staining.

For data set [12] the test system is unchanged. Briefly: Neurological/behavioral score after tMCAO/R. The format is in vivo, rat. The settings on record: same doses as histology (memantine 90.3, NitroMemantine 65.8 μmol/kg loading), 24-h post stroke. The text has this: Each adult animal underwent a neurologic evaluation[51] immediately after filament removal and again 1 day after reperfusion (prior to sacrifice). Each animal was assigned an objective behavioral score of 0–4: 0 representing no observable neurological deficit; 1 failure to extend the left forepaw; 2 circling to the left; 3 falling to the left; 4 cannot walk spontaneously. The scores obtained 24-h post stroke were averaged for each time point of each treatment group and presented as the neurological score.

The test system is the same in data set [13]. Put plainly: Physiological parameters during stroke. The format is in vivo, rat. The settings on record: loading dose, n = 18 SHR.
On the set-up of data set [14]: method as in PMID 19915593. Conditions: memantine 90.3 μmol/kg loading, 4.63 μmol/kg maintenance; cited from earlier work.
The test system of data set [15] is NMDAR-operated ion channel. The settings on record: cited from earlier work.

Sequence of recombinant GluN1/GluN2A receptors (Q12879 23-1464, other chains not shown): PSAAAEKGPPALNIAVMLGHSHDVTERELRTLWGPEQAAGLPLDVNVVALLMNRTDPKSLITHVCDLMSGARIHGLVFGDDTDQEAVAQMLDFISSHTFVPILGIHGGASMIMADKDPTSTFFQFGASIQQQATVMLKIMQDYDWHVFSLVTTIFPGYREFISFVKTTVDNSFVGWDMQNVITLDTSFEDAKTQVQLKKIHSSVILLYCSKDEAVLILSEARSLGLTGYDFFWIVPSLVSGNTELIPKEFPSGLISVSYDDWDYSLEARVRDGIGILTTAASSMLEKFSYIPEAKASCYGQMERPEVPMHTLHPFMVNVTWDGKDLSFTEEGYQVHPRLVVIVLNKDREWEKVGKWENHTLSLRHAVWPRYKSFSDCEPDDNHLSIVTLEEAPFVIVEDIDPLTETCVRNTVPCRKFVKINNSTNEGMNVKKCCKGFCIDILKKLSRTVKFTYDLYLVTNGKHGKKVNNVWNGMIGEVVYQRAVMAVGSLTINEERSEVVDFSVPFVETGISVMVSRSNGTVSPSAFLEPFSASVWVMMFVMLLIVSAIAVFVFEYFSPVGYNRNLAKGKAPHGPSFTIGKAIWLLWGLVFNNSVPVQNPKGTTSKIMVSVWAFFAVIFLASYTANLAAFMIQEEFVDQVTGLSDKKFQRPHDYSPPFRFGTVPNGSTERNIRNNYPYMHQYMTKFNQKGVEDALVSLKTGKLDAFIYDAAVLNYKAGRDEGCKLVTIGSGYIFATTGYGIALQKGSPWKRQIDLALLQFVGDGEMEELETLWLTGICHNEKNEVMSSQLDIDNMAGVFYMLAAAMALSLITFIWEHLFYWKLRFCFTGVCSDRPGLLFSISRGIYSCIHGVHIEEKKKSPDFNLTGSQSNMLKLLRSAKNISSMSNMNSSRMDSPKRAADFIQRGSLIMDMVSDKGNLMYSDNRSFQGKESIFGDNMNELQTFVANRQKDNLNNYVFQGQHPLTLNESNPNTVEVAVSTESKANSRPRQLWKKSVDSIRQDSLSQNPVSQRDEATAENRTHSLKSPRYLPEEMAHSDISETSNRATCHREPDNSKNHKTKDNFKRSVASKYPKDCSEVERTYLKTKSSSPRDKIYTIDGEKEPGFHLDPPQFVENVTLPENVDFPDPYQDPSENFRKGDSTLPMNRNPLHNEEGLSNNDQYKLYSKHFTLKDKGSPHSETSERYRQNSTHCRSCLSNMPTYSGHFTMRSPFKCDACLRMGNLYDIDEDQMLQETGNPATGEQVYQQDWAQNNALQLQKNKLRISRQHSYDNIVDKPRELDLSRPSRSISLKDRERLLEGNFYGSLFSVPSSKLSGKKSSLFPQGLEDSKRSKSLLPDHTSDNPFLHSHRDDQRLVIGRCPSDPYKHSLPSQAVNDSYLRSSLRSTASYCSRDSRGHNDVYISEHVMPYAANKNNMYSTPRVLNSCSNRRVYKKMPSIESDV
Sequence of GluN1(N616R)/GluN2A channels (Q12879 23-1464, other chains not shown): as above

`N[C@H](CCCP(=O)(O)O)C(=O)O` [D-AP5, (2R)-amino-5-phosphonopentanoate]: the “block of NMDAR component of the EPSC” value in [1] (50 μM, control) was “completely blocked”.
For `CCCC12CC3(N)CC(CCC)(C1)CC(O[N+](=O)[O-])(C3)C2` [YQW-037], the aqueous solubility result in [2] was “cannot be dissolved in aqueous solutions”.
In the case of `CCC12CC3(N)CC(CC)(C1)CC(O[N+](=O)[O-])(C3)C2` [YQW-036], in data set [3], the “steady-state channel block of NMDA current” value (from here on “steady-state channel block”) is “approximately the same degree as memantine” and the IC50 (in general, the concentration that inhibits the measured activity by half) is 2.4 µM. The “inhibition of NMDA-evoked current in the presence of extracellular Mg2+” value in data set [3] (10 µM, 1.2 mM Mg2+, NMDA 100 µM, holding potential −40 mV) is “inhibited”. In data set [4], the “blockade of NMDA-evoked current, voltage dependence” value was “approximately equivalent degree of blockade at both –75 mV and less blockade at +30 mV”. For the same compound, the “inhibition of NMDA-evoked current under conditions used to observe S-nitrosylation” value in [5] (100 μM, Vh −60 mV) is “inhibited NMDA-evoked current”. Moreover, in [5] (prior addition of MTSEA or mutation of redox-active cysteines in the NMDAR), the “prolonged inhibitory effect after prior MTSEA or mutation of redox-active cysteines” value is “largely abrogated”. Besides, the “redox-mediated activity on GluN1(N616R) mutant” value in data set [6] (100 μM) is given as “abrogated”. In data set [7], the “S-nitrosylation of Drp1 (SNO-Drp1)” value was “not significantly affected” and the “S-nitrosylation of the GluN1 subunit (SNO-GluN1), ipsilateral to stroke” value was “significant increase”. Besides, the “change of EPSC blockade with repeated electrical stimulation (pulses 1–10)” value in data set [1] (10 μM) is listed as “did not significantly increase”. Besides, the “block of NMDAR-mediated component of the EPSC” value in data set [1] (10 μM, 20 μM CNQX present) was “blocked to a lesser extent”. In addition, in [8], the “effect on LTP induction” value is “did not inhibit LTP”. Moreover, in data set [9], the “Morris water maze performance” value is listed as “not affected”. In addition, the “cerebrocortical neuronal apoptosis (TUNEL)” value in data set [10] is given as “do not cause”. In [11], the “histological protection (infarct size) at equimolar dose” value is reported as “significant benefit” and the “histological protection (infarct, TTC staining)” value is “protected to a greater extent than memantine”. Moreover, the “histological protection (infarct, TTC staining)” value in data set [11] (listed as NitroMemantine) is “offer histological protection”. Also, in [12], the neurological/behavioral score result was “showed a protective effect”. Also, the “physiological parameters (temperatures, blood pressure, metabolic panel)” value in data set [13] was “not significantly affected”. Moreover, the aqueous solubility result in [2] is “lower solubility in aqueous solution”.
On to `C[C@]12N[C@H](Cc3ccccc31)c1ccccc12` [MK-801, reference compound], for which, in data set [8], the “effect on LTP induction” value is given as “completely inhibited LTP induction”.
As for `CC12CC3CC(C)(C1)CC(N)(C3)C2` [memantine], the “blockade of NMDA-evoked current, voltage dependence” value in data set [4] is “approximately equivalent degree of blockade at both –75 mV and less blockade at +30 mV”. Further, in data set [1], the “block of NMDAR-mediated component of the EPSC” value was “blocks neurotransmission to a greater degree than NitroMemantine” and the “change of EPSC blockade with repeated electrical stimulation (pulses 1–10)” value is given as “use-dependent”. Also, the “cerebrocortical neuronal apoptosis (TUNEL)” value in data set [10] was “do not cause”. In [11], the “histological protection (infarct size) at equimolar dose” value is on record as “no significant protection” and the “histological protection (infarct, TTC staining)” value is on record as “offer histological protection”. Besides, in [13], the “physiological parameters (temperatures, blood pressure, metabolic panel)” value was “not significantly affected”. The “concentration at the mouth of the NMDAR-associated ion channel” value in data set [14] is 5 to 10 µM. Besides, the IC50 in [15] was 0.5 to 1 µM.
Take `NC12CC3CC(CC(C3)C1)C2` [amantadine, reference compound]: the “steady-state channel block” value in [3] is “inhibited less NMDA current at steady state than equimolar memantine”.
`N[C@@H](CSN=O)C(=O)O` [SNOC, S-nitrosocysteine, reference compound]: in data set [6], the “effect of GluN1(N616R) mutation on inhibition of current via S-nitrosylation” value is recorded as “did not affect inhibition”.
`CC12CC3(C)CC(N)(C1)CC(O[N+](=O)[O-])(C2)C3` [YQW-035]: in data set [3], the “steady-state channel block” value is “less channel block than memantine but more than amantadine” and the IC50 was found to be 6.3 µM. In addition, the “effect of GluN1(N616R) mutation on inhibition of current via S-nitrosylation” value in [6] is listed as “eliminated inhibition”.
